Source: patent US5637262A, “Photochromic substituted naphthopyran compounds” (Transitions Optical, Inc., priority 1995, dated 1997)

How the values were obtained:
Format in all cases: physicochemical
[1] = Activating wavelength by UV spectrophotometer (diethylene glycol dimethyl ether); conditions: for Activating Wavelength in Diethylene Glycol Dimethyl Ether: Table 1, approximately 0.5 milligram per milliliter in diethylene glycol dimethyl ether; for ACTIVATING WAVELENGTH: Table 3
Description: The products of Examples 1, 5, 8, 9, and Comparative Examples 1 and 2 were dissolved in diethylene glycol dimethyl ether. The concentrations of the resulting solutions were approximately 0.5 milligram per milliliter. Each solution was tested in a UV spectrophotometer to determine its activating wavelength. The activating wavelength reported in Table 1 is the wavelength at which activation of the photochromic compound occurs in diethylene glycol dimethyl ether. That value corresponds to the absorption peak in the ultraviolet region that is closest to the visible region or the threshold range, i.e., 390 to 410 nanometers, if there is only one absorption peak in this region. If there is more than one absorption peak, the activating wavelength corresponds most closely to the absorption peak that immediately proceeds the peak of longer wavelength in the ultraviolet region or the threshold range.

[2] = Photochromic response on optical bench in homopolymer of diethylene glycol bis(allyl carbonate) test squares (Part B); conditions: for BLEACH RATE T 1/2: Table 2, room temperature (72° F., 22.2° C.), homopolymer of diethylene glycol bis(allyl carbonate); for Δ OD @ SATURATION: UV exposure 20 minutes; for Δ OD @ SATURATION / Δ OD/Min SENSITIVITY: 320 nanometer filter, homopolymer test squares; for Δ OD/Min SENSITIVITY: first five (5) seconds of UV exposure, per minute basis
Description: Each naphthopyran was dissolved into toluene solvent to form a 4 weight percent solution of the compound. A piece of No. 4 Whatman filter paper was saturated with the naphthopyran solution and allowed to air dry. The dried filter paper was placed on one side of the polymer test square, which measured 1/8 inch (0.3 centimeter)×2 inch (5.1 centimeters)×2 inch (5.1 centimeters). A piece of untreated filter paper was placed on the other side of the polymer test square and the resulting sandwich placed between two plates of flat aluminum metal plates. […] The imbibed test squares were washed with acetone after removal from the oven.
(§1) The test samples were evaluated for photochromic response rates on an optical bench. The samples were illuminated by a 150 watt Xenon lamp fitted with a copper sulfate bath, a 320 nanometer filter, and a neutral density filter at an intensity of about one sun. A second beam of light provided by a filtered tungsten lamp arranged to pass through the sample area exposed by the UV source was used to monitor changes in transmission of the sample over different wavelength ranges in the visible region of the spectrum. The intensity of the monitoring beam after passing through the sample was measured by means of an IL-1500 radiometer equipped with a silicon detector head and matching filters.
(§2) The Δ OD/Min, which represents the sensitivity of the photochromic compound's response to UV light, was measured using photopic filters on the silicon detector. The response of the filtered detector approximated the luminosity curve. The Δ OD was measured over the first five (5) seconds of UV exposure, then expressed on a per minute basis. The saturation optical density (OD) was taken under identical conditions as the Δ OD/Min, except UV exposure was continued for 20 minutes for the examples in Table 2.

[3] = Solar response / loss in response on optical bench with 320 nm and 360 nm filters (Part C); conditions: for Δ OD @ 320 nm / Δ OD @ 360 nm: 15 minute exposure; for Δ OD @ 320 nm: 320 nanometer filter; for Δ OD @ 360 nm: 360 nanometer filter; for % LOSS IN RESPONSE: (OD 320 nm - OD 360 nm)/OD 320 nm x 100; for BLEACH RATE T 1/2: polymeric matrix prepared from a diethylene glycol bis(allyl carbonate) composition
Description: as §1
as §2, with “2. The Bleach Rate T 1/2 is the time interval in seconds for the absorbance of the activated form of the naphthopyran in the test polymers to reach one half the highest absorbance at room temperature (72° F., 22.2° C.) after removal of the source of activating light.” for “2.”
The solar response for naphthopyrans of Example 7 and Comparative Examples 3 and 4 was measured using the optical bench described in Part B. The naphthopyrans were imbibed by thermal transfer into test squares of a polymeric matrix prepared from a diethylene glycol bis(allyl carbonate) composition and two optical density measurements were made after 15 minute exposures to a UV source first fitted with a 320 nanometer filter and then fitted with a 360 nanometer filter. The loss in response was calculated by subtracting the optical density obtained with the 360 nanometer filter from the optical density obtained with the 320 nanometer filter and then dividing this figure by the optical density obtained with the 320 nanometer filter and multiplying by 100.
The loss in response measurement, expressed as a percent, simulates the difference between the photochromic response of the compounds exposed to full mid-day sun and to low light conditions, such as early day and late in the day when the lower wavelength components of the UV spectrum are attenuated.

SMILES | Activating Wavelength in Diethylene Glycol Dimethyl Ether [1] [nm] | BLEACH RATE T 1/2 [2] [min] | Δ OD @ SATURATION [2] | Δ OD/Min SENSITIVITY [2] | ACTIVATING WAVELENGTH [1] [nm] | Δ OD @ 320 nm [3] | Δ OD @ 360 nm [3] | % LOSS IN RESPONSE [3] [%] | BLEACH RATE T 1/2 ([3]; Table 3) [min] | further results
C1=CC(c2ccccc2)(c2ccccc2)Oc2ccc3ccccc3c21 [compound 2, 3,3-diphenyl-3H-naphtho[2,1-b]pyran] | 348 | 0.75 | 0.36 | 0.87 Δ OD/Min |  |  |  |  |  | 
COC(=O)c1cc2c3c(ccc2cc1OC)OC(c1ccc(OC)cc1)(c1ccccc1F)C=C3 (stereo not drawn) [Example 7, 3-(2-fluorophenyl)-3-(4-methoxyphenyl)-8-methoxy-9-carbomethoxy-3H-naphtho[2,1-b]pyran] |  |  |  |  | 384 | 0.187 | 0.184 | 2 | 3.27 | Bleach Rate T 1/2, i.e., rate of fade (in words) ([3]; Table 3): more acceptable Bleach Rate T 1/2; Reduction in optical density, 360 nm vs 320 nm cutoff filter (in words) ([3]; compared to comparative examples 3 and 4): less reduction in optical density
COC(=O)c1cc2c3c(ccc2cc1OC(C)=O)OC(c1ccc(OC)cc1)(c1ccc(OC)cc1OC)C=C3 (stereo not drawn) [Example 8, 3-(2,4-dimethoxy-phenyl)-3-(4-methoxyphenyl)-8-acetoxy-9-carbomethoxy-3H-naphtho-[2,1-b]pyran] | 376 |  |  |  |  |  |  |  |  | 
CCCOC(=O)c1cc2c3c(ccc2cc1O)OC(c1ccccc1)(c1ccccc1)C=C3 [Example 1, 3,3-diphenyl-8-hydroxy-9-carbopropoxy-3H-naphtho[2,1-b]pyran] | 408 |  |  |  |  |  |  |  |  | 
CCCOC(=O)c1cc2c3c(ccc2cc1OC)OC(c1ccccc1)(c1ccccc1)C=C3 [Example 5, 3,3-diphenyl-8-methoxy-9-carbopropoxy-3H-naphtho[2,1-b]pyran] | 382 | 1.33 | 0.55 | 1.4 Δ OD/Min |  |  |  |  |  | Sensitivity (in words) ([2]; compared to comparative examples 1 and 2): increased sensitivity as compared to the compounds of comparative examples 1 and 2
COc1ccc(C2(c3ccc(OC)cc3OC)C=Cc3c(ccc4ccccc34)O2)cc1 (stereo not drawn) [compound 4, 3-(2,4-dimethoxyphenyl)-3-(4-methoxyphenyl)-3H-naphtho[2,1-b]pyran] |  |  |  |  | 348 | 0.260 | 0.196 | 25 | 5.63 | 
COc1ccc2c3c(ccc2c1C)OC(c1ccccc1)(c1ccccc1)C=C3 [Example 9, 3,3-diphenyl-7-methyl-8-methoxy-3H-naphtho[2,1-b]pyran] | 369 |  |  |  |  |  |  |  |  | 
COc1ccc(C2(c3ccccc3F)C=Cc3c(ccc4cc(OC)ccc34)O2)cc1 (stereo not drawn) [Comparative Example 3, 3-(2-fluorophenyl)-3-(4-methoxyphenyl)-8-methoxy-3H-naphtho[2,1-b]pyran] |  |  |  |  | 359 | 0.266 | 0.249 | 6 | 5.93 | 
COc1ccc2c3c(ccc2c1)OC(c1ccccc1)(c1ccccc1)C=C3 [compound 1, 3,3-diphenyl-8-methoxy-3H-naphtho [2,1-b]pyran] | 359 | 1.45 | 0.73 | 1.25 Δ OD/Min |  |  |  |  |  | 
